Results on two compounds are retold here after BindingDB's records for doi:10.1016/j.bmcl.2004.12.007 (Cerep, 2005).

By IC50 is commonly meant the midpoint of a concentration-inhibition curve.

This assay concerns the target Integrin alpha-L/beta-2 (Homo sapiens, UniProt P05107+P20701). Nature of the assay: Inhibitory concentration against leukocyte function-associated antigen-1 in HSB-2 human lymphoblast and H1HeLa cell adhesion assay.

Chain of Integrin alpha-L/beta-2 (P20701 whole entry): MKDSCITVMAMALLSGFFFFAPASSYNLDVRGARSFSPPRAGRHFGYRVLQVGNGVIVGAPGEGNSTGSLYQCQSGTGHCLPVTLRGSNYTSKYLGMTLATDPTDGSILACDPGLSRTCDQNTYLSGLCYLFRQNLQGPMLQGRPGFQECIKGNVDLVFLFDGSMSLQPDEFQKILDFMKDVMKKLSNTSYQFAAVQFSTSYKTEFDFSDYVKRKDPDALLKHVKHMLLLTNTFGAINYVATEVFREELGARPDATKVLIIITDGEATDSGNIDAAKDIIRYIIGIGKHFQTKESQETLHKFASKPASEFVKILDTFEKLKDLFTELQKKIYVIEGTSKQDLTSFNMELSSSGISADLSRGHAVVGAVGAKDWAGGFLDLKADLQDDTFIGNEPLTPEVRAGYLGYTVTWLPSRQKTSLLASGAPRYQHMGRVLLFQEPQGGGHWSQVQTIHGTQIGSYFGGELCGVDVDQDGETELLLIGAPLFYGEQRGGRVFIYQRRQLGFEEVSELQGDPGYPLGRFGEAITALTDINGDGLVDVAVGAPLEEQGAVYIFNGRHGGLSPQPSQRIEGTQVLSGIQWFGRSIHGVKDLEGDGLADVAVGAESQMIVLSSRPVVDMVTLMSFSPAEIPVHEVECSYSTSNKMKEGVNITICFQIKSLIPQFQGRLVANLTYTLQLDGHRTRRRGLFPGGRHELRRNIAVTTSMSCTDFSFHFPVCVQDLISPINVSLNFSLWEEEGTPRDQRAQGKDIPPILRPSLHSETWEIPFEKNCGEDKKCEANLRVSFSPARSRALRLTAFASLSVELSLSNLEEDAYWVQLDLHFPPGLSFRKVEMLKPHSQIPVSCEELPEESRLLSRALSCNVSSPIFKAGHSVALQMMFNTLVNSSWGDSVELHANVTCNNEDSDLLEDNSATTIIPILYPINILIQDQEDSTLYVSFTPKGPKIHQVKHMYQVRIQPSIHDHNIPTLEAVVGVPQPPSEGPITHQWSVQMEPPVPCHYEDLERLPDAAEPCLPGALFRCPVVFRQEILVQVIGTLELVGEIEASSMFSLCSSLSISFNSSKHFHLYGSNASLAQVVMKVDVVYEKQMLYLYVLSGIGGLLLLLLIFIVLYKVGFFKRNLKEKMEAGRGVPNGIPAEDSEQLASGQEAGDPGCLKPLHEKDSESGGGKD
Chain of Integrin alpha-L/beta-2 (P05107 whole entry H354Q): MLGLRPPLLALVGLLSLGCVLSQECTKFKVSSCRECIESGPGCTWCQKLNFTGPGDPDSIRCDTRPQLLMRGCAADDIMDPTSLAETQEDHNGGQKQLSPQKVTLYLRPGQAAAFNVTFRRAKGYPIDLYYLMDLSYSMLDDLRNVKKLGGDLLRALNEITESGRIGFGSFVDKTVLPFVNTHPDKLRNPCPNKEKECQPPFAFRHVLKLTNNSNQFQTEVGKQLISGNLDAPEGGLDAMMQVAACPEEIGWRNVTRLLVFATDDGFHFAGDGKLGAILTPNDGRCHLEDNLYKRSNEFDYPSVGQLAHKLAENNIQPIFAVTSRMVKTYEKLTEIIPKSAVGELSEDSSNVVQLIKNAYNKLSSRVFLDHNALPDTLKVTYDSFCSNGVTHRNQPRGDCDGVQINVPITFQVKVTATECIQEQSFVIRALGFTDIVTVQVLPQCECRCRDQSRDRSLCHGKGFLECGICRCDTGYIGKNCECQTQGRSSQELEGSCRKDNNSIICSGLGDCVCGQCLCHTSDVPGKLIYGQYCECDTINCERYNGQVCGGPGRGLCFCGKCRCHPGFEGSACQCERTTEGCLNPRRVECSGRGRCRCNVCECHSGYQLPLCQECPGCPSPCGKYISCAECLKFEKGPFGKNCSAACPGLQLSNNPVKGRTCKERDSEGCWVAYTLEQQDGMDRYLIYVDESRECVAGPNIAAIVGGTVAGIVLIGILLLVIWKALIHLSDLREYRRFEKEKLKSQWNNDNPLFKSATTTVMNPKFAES

In turn, `N#Cc1ccc(-c2cccc(CN[C@H]3Cc4c(O)n(-c5cc(Cl)cc(Cl)c5)c(=O)n4C3)c2)cc1` [3''-{[(6S,7aS)-2-(3,5-Dichloro-phenyl)-1,3-dioxo-hexahydro-pyrrolo[1,2-c]imidazol-6-ylamino]-methyl}-biphenyl-4-carbonitrile] displayed an IC50 of 175 nM. For `CN(Cc1cccc(-c2ccc(Br)cc2)c1)[C@H]1Cc2c(O)n(-c3cc(Cl)cc(Cl)c3)c(=O)n2C1` [(6S,7aS)-6-[(4''-Bromo-biphenyl-3-ylmethyl)-methyl-amino]-2-(3,5-dichloro-phenyl)-tetrahydro-pyrrolo[1,2-c]imidazole-1,3-dione] the value was 175 nM.
